biological target: human PDE4D catalytic domain (Homo sapiens (Human), UniProt Q08499); assay: PDE4 Assay (TR-FRET, FAM-cAMP cleavage); type: biochemical; settings: Table 16, Examples 277-296; read-out: PDE4 IC50 range
Outline: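 Readout is Tb-to-FAM time-resolved FRET after nanoparticle capture of AMP, the product of cleaving a cAMP/FAM-cAMP mixture by PDE4D catalytic domain (S380-L740) in the presence of titrated compound. Values are IC50 ranges in nM: concentration halving substrate cleavage relative to controls.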

human PDE4D catalytic domain, sequence (Q08499 380-740): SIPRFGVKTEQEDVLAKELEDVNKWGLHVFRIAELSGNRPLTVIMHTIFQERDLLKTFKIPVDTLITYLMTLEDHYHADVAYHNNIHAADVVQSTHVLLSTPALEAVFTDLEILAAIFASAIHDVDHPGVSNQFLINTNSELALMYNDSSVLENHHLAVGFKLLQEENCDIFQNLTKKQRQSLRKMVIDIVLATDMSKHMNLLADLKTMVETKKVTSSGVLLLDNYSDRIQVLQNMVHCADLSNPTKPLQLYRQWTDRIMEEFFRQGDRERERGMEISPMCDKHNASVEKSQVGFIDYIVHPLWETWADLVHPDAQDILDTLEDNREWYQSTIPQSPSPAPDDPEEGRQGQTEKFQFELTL

| Compound | IC50 [nM] |
| --- | --- |
| CCn1nc(C[C@@H](C)COC(=O)c2ccns2)c2c1C(=O)NCC1(CCOCC1)C2 [Example 283, [(2R)-3-(1-ethyl-8-oxo-spiro[6,7-dihydro-4H-pyrazolo[3,4-c]azepine-5,4′-tetrahydropyran]-3-yl)-2-methyl-propyl] isothiazole-5-carboxylate] | < 100 |

same assay, conditions: Table 17, Examples 297-316; read-out: PDE4 IC50 range

| Compound | IC50 [nM] |
| --- | --- |
| CCn1nc(CC(C)(C)COC(=O)c2cscn2)c2c1C(=O)NCC1(CCOCC1)C2 [Example 305, [3-(1-ethyl-8-oxo-spiro[6,7-dihydro-4H-pyrazolo[3,4-c]azepine-5,4′-tetrahydro-pyran]-3-yl)-2,2-dimethyl-propyl] thiazole-4-carboxylate] | < 100 |

same assay, conditions: human PDE4D catalytic domain (UniProt Q08499 [S380-L740]); 50% inhibition of substrate cleavage; read-out: PDE4 IC50 range

| Compound | IC50 [nM] |
| --- | --- |
| CCn1nc(CCCOC(=O)c2cccc(F)c2Cl)c2c1C(=O)NCC1(CCOCC1)C2 [Example 49, 3-(1-ethyl-8-oxo-spiro[6,7-dihydro-4H-pyrazolo[3,4-c]azepine-5,4′-tetrahydropyran]-3-yl)propyl 2-chloro-3-fluoro-benzoate] | < 100 |
| CCn1nc(CCCOC(=O)c2ccc(S(C)(=O)=O)cc2)c2c1C(=O)NCC1(CCOCC1)C2 [Example 3, 3-(1-Ethyl-8-oxo-spiro[6,7-dihydro-4H-pyrazolo[3,4-c]azepine-5,4′-tetrahydropyran]-3-yl)propyl 4-methylsulfonylbenzoate] | < 100 |
| CCn1cc(C(=O)OCCCc2nn(CC)c3c2CC2(CCOCC2)CNC3=O)cn1 [Example 250, 3-(1-ethyl-8-oxo-spiro[6,7-dihydro-4H-pyrazolo[3,4-c]azepine-5,4′-tetrahydropyran]-3-yl)propyl 1-ethylpyrazole-4-carboxylate] | < 100 |
| CCn1nc(CCCOC(=O)c2cccc(S(=O)(=O)N3CCN(C(C)=O)CC3)c2)c2c1C(=O)NCC1(CCOCC1)C2 [Example 101, 3-(1-ethyl-8-oxo-spiro[6,7-dihydro-4H-pyrazolo[3,4-c]azepine-5,4′-tetrahydropyran]-3-yl)propyl 3-(4-acetylpiperazin-1-yl)sulfonylbenzoate] | < 100 |
| CCn1nc(CCCOC(=O)c2cc(C(F)(F)F)ccc2Cl)c2c1C(=O)NCC1(CCOCC1)C2 [Example 91, 3-(1-ethyl-8-oxo-spiro[6,7-dihydro-4H-pyrazolo[3,4-c]azepine-5,4′-tetrahydro-pyran]-3-yl)propyl 2-chloro-5-(trifluoromethyl)benzoate] | < 100 |
| CCn1nc(CCCOC(=O)c2cocn2)c2c1C(=O)NCC1(CCOCC1)C2 [Example 235, 3-(1-ethyl-8-oxo-spiro[6,7-dihydro-4H-pyrazolo[3,4-c]azepine-5,4′-tetrahydro-pyran]-3-yl)propyl oxazole-4-carboxylate] | < 100 |
| CCn1nc(CC(C)(C)COC(=O)c2ccc(C(=O)N(C)C)cc2)c2c1C(=O)NCC1(CCOCC1)C2 [Example 220, [3-(1-ethyl-8-oxo-spiro[6,7-dihydro-4H-pyrazolo[3,4-c]azepine-5,4′-tetra-hydropyran]-3-yl)-2,2-dimethyl-propyl] 4-(di-methylcarbamoyl)benzoate] | < 100 |
| CCn1nc(C[C@@H](C)COC(=O)c2cccc(C(=O)N(C)C)c2)c2c1C(=O)NCC1(CCOCC1)C2 [Example 180, [(2R)-3-(1-ethyl-8-oxo-spiro[6,7-dihydro-4H-pyrazolo[3,4-c]azepine-5,4′-tetrahydropyran]-3-yl)-2-methyl-propyl] 3-(di-methylcarbamoyl)benzoate] | < 100 |
| CCn1nc(CCCOC(=O)c2ccc(F)cc2)c2c1C(=O)NCC1(CCOCC1)C2 [Example 10, 3-(1-ethyl-8-oxo-spiro[6,7-dihydro-4H-pyrazolo[3,4-c]azepine-5,4′-tetrahydropyran]-3-yl)propyl 4-fluorobenzoate] | < 100 |
| CCn1nc(CC(C)(C)COC(=O)c2cccc(F)c2)c2c1C(=O)NCC1(CCOCC1)C2 [Example 191, [3-(1-ethyl-8-oxo-spiro[6,7-dihydro-4H-pyrazolo[3,4-c]azepine-5,4′-tetrahydropyran]-3-yl)-2,2-dimethyl-propyl] 3-fluorobenzoate] | < 100 |
| CCn1nc(CCCCOC(=O)c2ccc(F)cc2)c2c1C(=O)NCC1(CCOCC1)C2 [Example 124, 4-(1-ethyl-8-oxo-spiro[6,7-dihydro-4H-pyrazolo[3,4-c]azepine-5,4′-tetrahydropyran]-3-yl)butyl 4-fluorobenzoate] | < 100 |
| CCn1nc(CC(C)(C)COC(=O)c2cccc(S(=O)(=O)N3CCOCC3)c2)c2c1C(=O)NCC1(CCOCC1)C2 [Example 212, [3-(1-ethyl-8-oxo-spiro[6,7-dihydro-4H-pyrazolo[3,4-c]azepine-5,4′-tetrahydropyran]-3-yl)-2,2-dimethyl-propyl] 3-morpholinosulfonylbenzoate] | < 100 |
| CCn1nc(CCCCOC(=O)c2cnc(C)nc2)c2c1C(=O)NCC1(CCOCC1)C2 [Example 271, 4-(1-ethyl-8-oxo-spiro[6,7-dihydro-4H-pyrazolo[3,4-c]azepine-5,4′-tetrahydropyran]-3-yl)butyl 2-methylpyrimidine-5-carboxylate] | < 100 |
| CCn1nc(C[C@@H](C)COC(=O)c2ccc(C(=O)NC)cc2)c2c1C(=O)NCC1(CCOCC1)C2 [Example 170, [(2R)-3-(1-ethyl-8-oxo-spiro[6,7-dihydro-4H-pyrazolo[3,4-c]azepine-5,4′-tetrahydropyran]-3-yl)-2-methyl-propyl] 4-(methylcarbamoyl)benzoate] | < 100 |
| CCn1nc(CCCOC(=O)c2cccc(S(=O)(=O)N3CCCC3)c2)c2c1C(=O)NCC1(CCOCC1)C2 [Example 95, 3-(1-ethyl-8-oxo-spiro[6,7-dihydro-4H-pyrazolo[3,4-c]azepine-5,4′-tetrahydro-pyran]-3-yl)propyl 3-pyrro-lidin-1-ylsulfonylbenzoate] | < 100 |
| CCn1nc(C[C@@H](C)COC(=O)c2ccc(S(=O)(=O)N3CCN(C(C)=O)CC3)cc2)c2c1C(=O)NCC1(CCOCC1)C2 [Example 167, [(2R)-3-(1-ethyl-8-oxo-spiro[6,7-dihydro-4H-pyrazolo[3,4-c]azepine-5,4′-tetrahydropyran]-3-yl)-2-methyl-propyl] 4-(4-acetylpiperazin-1-yl)sulfonylbenzoate] | < 100 |
| CCn1nc(CCCOC(=O)c2ccc(C(F)(F)F)cc2)c2c1C(=O)NCC1(CCOCC1)C2 [Example 62, 3-(1-ethyl-8-oxo-spiro[6,7-dihydro-4H-pyrazolo[3,4-c]azepine-5,4′-tetrahydropyran]-3-yl)propyl 4-(trifluoromethyl)benzoate] | < 100 |
| CCn1nc(CC(C)(C)COC(=O)c2ccc(S(=O)(=O)N3CCCC3)cc2)c2c1C(=O)NCC1(CCOCC1)C2 [Example 211, [3-(1-ethyl-8-oxo-spiro[6,7-dihydro-4H-pyrazolo[3,4-c]azepine-5,4′-tetrahydropyran]-3-yl)-2,2-dimethyl-propyl] 4-pyrrolidin-1-ylsulfonylbenzoate] | < 100 |
| CCn1nc(C[C@@H](C)COC(=O)[C@H]2CC[C@@H](O)CC2)c2c1C(=O)NCC1(CCOCC1)C2 [Example 147, [(2R)-3-(1-ethyl-8-oxo-spiro[6,7-dihydro-4H-pyrazolo[3,4-c]azepine-5,4′-tetrahydropyran]-3-yl)-2-methyl-propyl] 4-hydroxy-cyclohexanecarboxylate] | < 100 |
| CCn1nc(CC(C)(C)COC(=O)c2ccc(OC)cc2)c2c1C(=O)NCC1(CCOCC1)C2 [Example 197, [3-(1-ethyl-8-oxo-spiro[6,7-dihydro-4H-pyrazolo[3,4-c]azepine-5,4′-tetrahydropyran]-3-yl)-2,2-dimethyl-propyl] 4-methoxybenzoate] | < 100 |
| CCn1nc(CCCOC(=O)c2ccns2)c2c1C(=O)NCC1(CCOCC1)C2 [Example 242, 3-(1-ethyl-8-oxo-spiro[6,7-dihydro-4H-pyrazolo[3,4-c]azepine-5,4′-tetrahydropyran]-3-yl)propyl isothiazole-5-carboxylate] | < 100 |
| CCn1nc(CCCCOC(=O)c2ccc(C(N)=O)cc2)c2c1C(=O)NCC1(CCOCC1)C2 [Example 127, 4-(1-ethyl-8-oxo-spiro[6,7-dihydro-4H-pyrazolo[3,4-c]azepine-5,4′-tetrahydropyran]-3-yl)butyl 4-carbamoylbenzoate] | < 100 |
| CCn1nc(CC(C)(C)COC(=O)c2cccc(C(=O)NC)c2)c2c1C(=O)NCC1(CCOCC1)C2 [Example 228, [3-(1-ethyl-8-oxo-spiro[6,7-dihydro-4H-pyrazolo[3,4-c]azepine-5,4′-tetrahydropyran]-3-yl)-2,2-dimethyl-propyl] 3-(methylcarbamoyl)benzoate] | < 100 |
| CCn1nc(CCCOC(=O)c2ccc(C)cc2OC)c2c1C(=O)NCC1(CCOCC1)C2 [Example 34, 3-(1-ethyl-8-oxo-spiro[6,7-dihydro-4H-pyrazolo[3,4-c]azepine-5,4′-tetrahydropyran]-3-yl)propyl 2-methoxy-4-methyl-benzoate] | < 100 |
| CCn1nc(C[C@@H](C)COC(=O)c2cccc(C(C)=O)c2)c2c1C(=O)NCC1(CCOCC1)C2 [Example 154, [(2R)-3-(1-ethyl-8-oxo-spiro[6,7-dihydro-4H-pyrazolo[3,4-c]azepine-5,4′-tetrahydropyran]-3-yl)-2-methyl-propyl] 3-acetylbenzoate] | < 100 |
| CCn1nc(CCCOC(=O)c2cccc(S(C)(=O)=O)c2)c2c1C(=O)NCC1(CCOCC1)C2 [Example 63, 3-(1-ethyl-8-oxo-spiro[6,7-dihydro-4H-pyrazolo[3,4-c]azepine-5,4′-tetrahydropyran]-3-yl)propyl 3-methylsulfonylbenzoate] | < 100 |
| CCn1nc(CCCOC(=O)c2ccc(S(N)(=O)=O)cc2)c2c1C(=O)NCC1(CCOCC1)C2 [Example 65, 3-(1-ethyl-8-oxo-spiro[6,7-dihydro-4H-pyrazolo[3,4-c]azepine-5,4′-tetrahydropyran]-3-yl)propyl 4-sulfamoylbenzoate] | < 100 |

— patent US10793580B2, “Substituted pyrazoloazepin-8-ones and their use as phosphodiesterase inhibitors” (LEO Pharma A/S, priority 2016, dated 2020)
